From PubChem BioAssay AID248 (DTP/NCI, 2004)
Where “and” joins values, the source holds several entries; their conditions need not be identical. Identical values can stand only once. Toxic doses and inconclusive results are not listed. Rule as the data show it: active = T/C of 150% or more; inactive = T/C below 125%.

Test system: L1210 leukemia ip in BDF1 mice, survival T/C
Test: NCI In Vivo Anticancer Drug Screen. Data for tumor model L1210 Leukemia (intraperitoneal) in B6D2F1 (BDF1) mice
Details: endpoint: mean survival time, higher = longer survival
In short: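 Tumor cells were implanted, animals were treated, and survival was followed. The result divides the treated measurement by the vehicle-control measurement.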

[1] = dose: 5.0 mg/kg/injection, schedule: Q01DX001 (ip), vehicle: saline
[2] = dose: 10.0 mg/kg/injection, schedule: Q01DX001 (ip), vehicle: saline
[3] = dose: 20.0 mg/kg/injection, schedule: Q01DX001 (ip), vehicle: saline
[4] = dose: 40.0 mg/kg/injection, schedule: Q01DX001 (ip), vehicle: saline
[5] = dose: 100.0 mg/kg/injection, schedule: Q01DX001 (ip), vehicle: carboxymethylcellulose (CMC)
[6] = dose: 200.0 mg/kg/injection, schedule: Q01DX001 (ip), vehicle: carboxymethylcellulose (CMC)
[7] = dose: 400.0 mg/kg/injection, schedule: Q01DX001 (ip), vehicle: carboxymethylcellulose (CMC)
[8] = dose: 100.0 mg/kg/injection, schedule: Q01DX009 (ip), vehicle: saline with Tween-80
[9] = dose: 100.0 mg/kg/injection, schedule: Q04DX003 (ip), vehicle: saline with Tween-80
[10] = dose: 200.0 mg/kg/injection, schedule: Q04DX003 (ip), vehicle: saline with Tween-80
[11] = dose: 400.0 mg/kg/injection, schedule: Q04DX003 (ip), vehicle: saline with Tween-80
[12] = dose: 200.0 mg/kg/injection, schedule: Q01DX009 (ip), vehicle: saline with Tween-80
[13] = dose: 100.0 mg/kg/injection, schedule: Q04DX002 (ip), vehicle: Klucel (hydroxypropylcellulose) (HPC)
[14] = dose: 200.0 mg/kg/injection, schedule: Q04DX002 (ip), vehicle: Klucel (hydroxypropylcellulose) (HPC)
[15] = dose: 400.0 mg/kg/injection, schedule: Q04DX002 (ip), vehicle: Klucel (hydroxypropylcellulose) (HPC)
[16] = dose: 100.0 mg/kg/injection, schedule: Q01DX001 (ip), vehicle: Klucel (hydroxypropylcellulose) (HPC)
[17] = dose: 100.0 mg/kg/injection, schedule: Q04DX003 (ip), vehicle: Klucel (hydroxypropylcellulose) (HPC)
[18] = dose: 200.0 mg/kg/injection, schedule: Q01DX001 (ip), vehicle: Klucel (hydroxypropylcellulose) (HPC)
[19] = dose: 200.0 mg/kg/injection, schedule: Q04DX003 (ip), vehicle: Klucel (hydroxypropylcellulose) (HPC)
[20] = dose: 400.0 mg/kg/injection, schedule: Q01DX001 (ip), vehicle: Klucel (hydroxypropylcellulose) (HPC)
[21] = dose: 400.0 mg/kg/injection, schedule: Q04DX003 (ip), vehicle: Klucel (hydroxypropylcellulose) (HPC)
[22] = dose: 50.0 mg/kg/injection, schedule: Q01DX009 (ip), vehicle: saline
[23] = dose: 100.0 mg/kg/injection, schedule: Q01DX009 (ip), vehicle: saline
[24] = dose: 100.0 mg/kg/injection, schedule: Q04DX003 (ip), vehicle: saline
[25] = dose: 200.0 mg/kg/injection, schedule: Q01DX009 (ip), vehicle: saline

Measured: T/C

CCN(Cc1ccc(Cl)c(Cl)c1)c1ccc2nc(N)nc(N)c2c1C
inactive: dose: 1.56 mg/kg/injection, schedule: Q01DX009 (ip), vehicle: water 110 % of control | dose: 3.12 mg/kg/injection, schedule: Q01DX009 (ip), vehicle: water 103 % of control and 110 % of control | dose: 6.25 mg/kg/injection, schedule: Q01DX009 (ip), vehicle: water 116 % of control and 124 % of control | dose: 12.5 mg/kg/injection, schedule: Q01DX009 (ip), vehicle: water 121 % of control | dose: 25.0 mg/kg/injection, schedule: Q01DX009 (ip), vehicle: water 110 % of control

O=C(C[n+]1ccccc1-c1ccccn1)c1ccccc1
inactive: [1] 103 % of control | [2] 103 % of control | [3] 105 % of control | [4] 113 % of control

Nc1ncnc2c1ncn2C1OC(CCO)C(O)C1O (stereo not drawn)
inactive: [5] 100 % of control | [6] 96 % of control | [7] 93 % of control

CCN1CCCC(Nc2nc(C(Cl)(Cl)Cl)nc3cc(Cl)ccc23)C1 (stereo not drawn)
inactive: [8] 104 % of control | [9] 87 % of control | [10] 89 % of control | [11] 88 % of control

CC(Br)CNC(=O)c1ccc([N+](=O)[O-])cc1 (stereo not drawn)
inactive: dose: 75.0 mg/kg/injection, schedule: Q01DX009 (ip), vehicle: Klucel (hydroxypropylcellulose) (HPC) 107 % of control | dose: 150.0 mg/kg/injection, schedule: Q01DX009 (ip), vehicle: Klucel (hydroxypropylcellulose) (HPC) 97 % of control | dose: 300.0 mg/kg/injection, schedule: Q01DX009 (ip), vehicle: Klucel (hydroxypropylcellulose) (HPC) 101 % of control

O=C(O)C(c1cccs1)c1cccs1
inactive: [8] 102 % of control | [9] 102 % of control | [12] 88 % of control | [10] 92 % of control | dose: 400.0 mg/kg/injection, schedule: Q01DX009 (ip), vehicle: saline with Tween-80 105 % of control | [11] 103 % of control

CCCCCCCCCCCC(=O)N1CCCCC1
inactive: dose: 100.0 mg/kg/injection, schedule: Q01DX001 (ip), vehicle: saline with Tween-80 101 % of control | dose: 200.0 mg/kg/injection, schedule: Q01DX001 (ip), vehicle: saline with Tween-80 97 % of control | dose: 400.0 mg/kg/injection, schedule: Q01DX001 (ip), vehicle: saline with Tween-80 89 % of control

CC(=O)/C(C)=N/Nc1ccccc1
inactive: [9] 101 % of control | [10] 106 % of control | [11] 106 % of control

C=COCCN1C(=O)c2ccccc2C1=O
inactive: [13] 102 % of control | [14] 120 % of control | [15] 106 % of control

CC(C)=CCc1cccc(C)c1
inactive: dose: 50.0 mg/kg/injection, schedule: Q01DX009 (ip), vehicle: saline with Tween-80 94 % of control | [8] 98 % of control | [12] 105 % of control

NC(=O)Cc1ccc2c(c1)[nH]c1ccccc12
inactive: [16] 96 % of control | [17] 102 % of control | [18] 94 % of control | [19] 105 % of control | [20] 100 % of control | [21] 103 % of control

CC(C)C1=CCC(OC(=O)c2ccc(NC(=S)Nc3ccccc3)cc2)CC1 (stereo not drawn)
inactive: [9] 92 % of control | [10] 96 % of control | [11] 89 % of control

Cn1cnc([N+](=O)[O-])c1Cl
inactive: [22] 102 % of control | [23] 103 % of control | [24] 94 % of control | [25] 92 % of control | dose: 200.0 mg/kg/injection, schedule: Q04DX003 (ip), vehicle: saline 102 % of control

CC(C)C1(C(=O)N2CCCCC2=O)SCCCS1
inactive: [9] 94 % of control | [10] 90 % of control | [11] 92 % of control

c1ccc(N2CN(c3ccccc3)CN(c3ccccc3)C2)cc1
inactive: [16] 97 % of control | [13] 101 % of control | [18] 92 % of control | [14] 101 % of control | [20] 92 % of control | [15] 97 % of control

O=C(O)c1ccc(CBr)cc1CBr
inactive: dose: 6.25 mg/kg/injection, schedule: Q01DX009 (ip), vehicle: saline with Tween-80 103 % of control | dose: 6.25 mg/kg/injection, schedule: Q04DX003 (ip), vehicle: saline with Tween-80 93 % of control | dose: 12.5 mg/kg/injection, schedule: Q01DX009 (ip), vehicle: saline with Tween-80 101 % of control | dose: 12.5 mg/kg/injection, schedule: Q04DX003 (ip), vehicle: saline with Tween-80 96 % of control | dose: 25.0 mg/kg/injection, schedule: Q01DX009 (ip), vehicle: saline with Tween-80 94 % of control | dose: 25.0 mg/kg/injection, schedule: Q04DX003 (ip), vehicle: saline with Tween-80 102 % of control

O=C(OCCOCCN1CCCCC1)N1c2ccccc2Sc2cccnc21
inactive: [1] 104 % of control | dose: 6.25 mg/kg/injection, schedule: Q01DX009 (ip), vehicle: saline 102 % of control | [2] 101 % of control | dose: 12.5 mg/kg/injection, schedule: Q01DX009 (ip), vehicle: saline 107 % of control | [3] 98 % of control | dose: 25.0 mg/kg/injection, schedule: Q01DX009 (ip), vehicle: saline 103 % of control | dose: 25.0 mg/kg/injection, schedule: Q04DX003 (ip), vehicle: saline 106 % of control | [4] 101 % of control | [22] 101 % of control | dose: 50.0 mg/kg/injection, schedule: Q04DX003 (ip), vehicle: saline 111 % of control | dose: 80.0 mg/kg/injection, schedule: Q01DX001 (ip), vehicle: saline 101 % of control | dose: 100.0 mg/kg/injection, schedule: Q01DX001 (ip), vehicle: saline 98 % of control | [24] 106 % of control

O=C(O)C1=CC2CC1C1CC(C(=O)O)CC21 (stereo not drawn)
inactive: [16] 105 % of control | [18] 91 % of control | [20] 103 % of control

Nc1ccc2nc3ccc(N)cc3[n+](-c3ccccc3)c2c1
inactive: dose: 5.0 mg/kg/injection, schedule: Q01DX001 (ip), vehicle: other 111 % of control | dose: 10.0 mg/kg/injection, schedule: Q01DX001 (ip), vehicle: other 108 % of control | dose: 18.0 mg/kg/injection, schedule: Q01DX001 (ip), vehicle: other 101 % of control and 103 % of control | dose: 20.0 mg/kg/injection, schedule: Q01DX001 (ip), vehicle: other 108 % of control | dose: 27.0 mg/kg/injection, schedule: Q01DX001 (ip), vehicle: other 106 % of control and 118 % of control | dose: 40.0 mg/kg/injection, schedule: Q01DX001 (ip), vehicle: other 110 % of control and 114 % of control | dose: 60.0 mg/kg/injection, schedule: Q01DX001 (ip), vehicle: other 104 % of control

O=[N+]([O-])c1cc(S(=O)(=O)O)c(Nc2ccccc2)cc1NCCO
inactive: [17] 91 % of control | [19] 91 % of control | [21] 90 % of control

Cc1ccccc1C(=O)c1ccccc1C(=O)c1ccccc1
inactive: dose: 50.0 mg/kg/injection, schedule: Q01DX001 (ip), vehicle: carboxymethylcellulose (CMC) 98 % of control | [5] 88 % of control | [23] 97 % of control | [6] 93 % of control | [25] 95 % of control | [7] 101 % of control | dose: 400.0 mg/kg/injection, schedule: Q01DX009 (ip), vehicle: saline 97 % of control

Nc1cc2ccc(O)cc2c2ccccc12
inactive: dose: 25.6 mg/kg/injection, schedule: Q04DX002 (ip), vehicle: saline with Tween-80 109 % of control | dose: 64.0 mg/kg/injection, schedule: Q04DX002 (ip), vehicle: saline with Tween-80 91 % of control | dose: 160.0 mg/kg/injection, schedule: Q04DX002 (ip), vehicle: saline with Tween-80 94 % of control | dose: 400.0 mg/kg/injection, schedule: Q04DX002 (ip), vehicle: saline with Tween-80 102 % of control
